In publication PMC6657668, “Porcine Beta-Defensin 2 Provides Protection Against Bacterial Infection by a Direct Bactericidal Activity and Alleviates Inflammation via Interference With the TLR4/NF-κB Pathway” (Frontiers in Immunology, 2019):
Where a SMILES comes first, the peptide text is derived from it.

What was measured:
RAW 264.7 cells = test: Cytokine levels of RAW 264.7 cells after treatment with LPS (ELISA), with or without pathway inhibitor; type: cell-based, mouse; conditions: for IL-1β level / IL-6 level / TNF-α level: LPS 1 μg/ml
Experimental: RAW 264.7 cells and RAW 264.7 cells stably expressing PBD-2 were pre-treated with S. Typhimurium at MOI = 10:1 for 1 h or with LPS (1 μg/ml) for 16 h, washed with PBS twice and incubated with RPMI 1640 that contained PBS or PBD-2 (10 μg/mL) for 16 h. RAW 264.7 cells stably expressing PBD-2 were maintained in RPMI 1640 that contained PBS for 16 h (n = 6 for each group). The expression levels of proinflammatory cytokines in the cell culture supernatant were determined through ELISA in accordance with the manufacturer's instruction.
In the inhibition assay, RAW 264.7 cells were pre-treated with 4 μg/ml NF-κB inhibitor (Celastrol, # ant-cls, InvivoGen®, San Diego, CA, USA) or 1 μg/ml TLR4 inhibitor (CLI-095, # tlrl-cli95, InvivoGen®, San Diego, CA, USA) for 1 h. Subsequently, RAW 264.7 cells were treated with LPS (1 μg/ml) alone or together with PBD-2 (10 μg/mL) for 16 h (n = 6 each group). RAW 264.7 cells treated with PBS were used as control. The levels of the cytokines in the supernatant of the cells were detected through ELISA.

NF-κB = NF-κB promoter activity, luciferase reporter assay in RAW 264.7 cells; type: cell-based, mouse; conditions: n = 6
Experimental: A luciferase reporter assay was used to detect the promoter activity of NF-κB. RAW 264.7 cells were seeded in a 24-well plate for 24 h and then cotransfected with 800 ng/well of the NF-κB reporter plasmid (pGL3-Basic) and 20 ng/well of pLR-TK. WT […] luciferase (Rluc) served as the reporter gene control vector. […] In the inhibition assay, the cells were pre-treated with 1 μg/ml TLR4 inhibitor for 1 h and treated with LPS (1 μg/ml) alone or together with PBD-2 (10 μg/mL) for 24 h (n = 6 each group). Luciferase units were detected to show the promoter activity of NF-κB ([28]).

TLR4 = molecular target: T1, TLR4 (Mus musculus, UniProt Q9QUK6); test: Interaction with TLR4, far-Western blot; type: binding; conditions: PBD-2 10 μg/ml, 37°C, 2 h
T1 construct: purchased Cloud-clone, Wuhan, China RPA753Mu01
Experimental: TLR4 and BSA proteins as a control were subject to SDS-PAGE and electro-transferred onto a PVDF membrane. The PVDF membrane was blocked with 10 μg/ml BSA in PBST at 37°C for 2 h, washed five times with PBST and incubated with PBST that contained 10 μg/ml PBD-2 or 10 μg/ml BSA as a control at 37°C for 2 h. After the membranes were washed, the PVDF membrane was incubated with anti-PBD-2 antisera (with a titer 1:500,000) at 37°C for 2 h and washed five times with PBST. The membrane was then incubated with the secondary antibodies, namely, goat anti-mouse IgG (# AS003, ABclonal®, Wuhan, China), at 37°C for 2 h and washed five times with PBST. Lastly, immune-reactive bands were detected using an ECF Western blot system (Tanon 5200 Multi, Shanghai, China).

S. Typhimurium = tested on: S. Typhimurium; parameters: species or system Salmonella Typhimurium 14028 (in mice); conditions: mouse, in vivo, po
[1] = PBD-2 overexpressed in TG pigs; ref [16]; cited from earlier work
Text: The antibiotic resistance of pathogenic bacteria has become a global threat ([30]). Defensins are natural peptides secreted by many species and implicated in resisting bacterial infection ([31]). PBD-2 is one of the defensins expressed in pigs. […] The invasion of S. Typhimurium can increase the expression of PBD-2 in porcine epithelial cells ([32]). […] PBD-2 also improves the growth perf ...

[2] = transgenic expression; ref [24]; cited from earlier work
bacteria = conditions: ref [11], cited from earlier work
Text: Another fact is that some vi ...

p38 = test: Western blot of p38 and p-p38 in RAW 264.7 cells; type: cell-based, mouse; conditions: LPS 30 min with various concentrations of PBD-2 (Figure S4)
Experimental: RAW 264.7 cells were treated with LPS (1 μg/ml) alone or together with PBD-2 (10 μg/mL). […] Proteins were firstly analyzed with SDS-PAGE and then electro-transferred onto a PVDF (#ISEQ00010, Biosharp®, Beijing, China) membrane. The PVDF membrane was blocked with 1/100 bovine serum albumin (BSA, #V900933-100G, VETEC, Sigma-Aldrich®, St. Louis, MO, USA) at 10 μg/ml at 37°C for 2 h, washed with PBST five times, incubated with the antisera against p-p65 (# 3033), p65 (# 4764), p-ERK (# 4370), ERK (# 4695), p-p38 (# 4511), p38 (# 8690), p-JNK (# 4668), JNK (# 9258) (Cell Signaling Technology®, Danvers, MA, USA), and β-actin (# AA128, Beyotime®, Shanghai, China) at 2 μg/ml at 37°C for 2 h and washed five times again. The PVDF membrane was subsequently incubated with 1 μg/ml secondary antibody, namely, goat anti-rabbit IgG (# 7074S, Cell Signaling Technology®, Danvers, MA, USA), at 37°C for 2 h and washed five times. Lastly, immune-reactive bands were detected using an ECF Western blot system (Tanon 5200 Multi, Shanghai, China) and quantified using AlphaImager 2200 analysis software.
Supplementary file Image_4.TIF: Figure S4 Effects of PBD-2 on ERK, p38, and JNK signaling pathways. Cells were treated with LPS for 30 min with or without various concentrations of PBD-2. […] The signal intensity of each band was quantified (B–D). […]

[3] = PBD-2 expressed by RAW 264.7–PBD-2 cells, n = 6
[4] = synthetic PBD-2 10 μg/mL with LPS 1 μg/ml, 16 h, after CLI-095 1 μg/ml, n = 6
[5] = synthetic PBD-2 10 μg/mL with LPS 1 μg/ml, 16 h, after Celastrol 4 μg/ml, n = 6
[6] = synthetic PBD-2 10 μg/mL, 16 h, n = 6

T1 sequence (Q9QUK6 26-835): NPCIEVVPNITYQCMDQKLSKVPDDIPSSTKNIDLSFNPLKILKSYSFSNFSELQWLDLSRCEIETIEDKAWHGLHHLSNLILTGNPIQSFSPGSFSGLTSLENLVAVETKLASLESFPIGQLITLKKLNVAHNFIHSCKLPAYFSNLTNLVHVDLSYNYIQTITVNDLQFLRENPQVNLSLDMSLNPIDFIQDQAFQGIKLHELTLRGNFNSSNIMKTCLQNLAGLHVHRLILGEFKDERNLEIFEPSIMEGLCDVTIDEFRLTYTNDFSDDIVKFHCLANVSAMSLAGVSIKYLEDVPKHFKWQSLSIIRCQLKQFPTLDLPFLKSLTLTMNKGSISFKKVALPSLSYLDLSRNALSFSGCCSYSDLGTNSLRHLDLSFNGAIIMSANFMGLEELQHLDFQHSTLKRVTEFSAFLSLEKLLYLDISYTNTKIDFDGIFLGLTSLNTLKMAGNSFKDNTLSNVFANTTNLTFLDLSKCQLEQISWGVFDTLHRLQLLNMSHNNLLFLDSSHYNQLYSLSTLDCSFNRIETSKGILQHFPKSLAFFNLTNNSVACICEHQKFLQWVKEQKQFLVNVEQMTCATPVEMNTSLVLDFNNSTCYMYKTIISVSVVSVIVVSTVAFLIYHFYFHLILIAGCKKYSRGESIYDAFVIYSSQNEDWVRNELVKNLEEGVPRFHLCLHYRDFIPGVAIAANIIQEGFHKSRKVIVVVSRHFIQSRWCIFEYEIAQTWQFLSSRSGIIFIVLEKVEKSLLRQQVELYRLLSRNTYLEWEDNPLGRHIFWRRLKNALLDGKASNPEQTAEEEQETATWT

For CC[C@H](C)[C@H](NC(=O)[C@@H]1CSSC[C@@H]2NC(=O)[C@@H]3CCCN3C(=O)[C@H](CO)NC(=O)[C@H](Cc3ccccc3)NC(=O)[C@H](CC(N)=O)NC(=O)[C@@H]3CSSC[C@H](NC(=O)[C@H]([C@@H](C)O)NC(=O)CNC(=O)[C@H](CCC(=O)O)NC(=O)[C@H]([C@@H](C)CC)NC(=O)[C@H](CCCNC(=N)N)NC(=O)[C@H](CC(N)=O)NC(=O)[C@H](Cc4ccccc4)NC(=O)[C@H](CC(C)C)NC(=O)[C@@H]4CCCN4C2=O)C(=O)N[C@@H](Cc2ccc(O)cc2)C(=O)N[C@@H](CO)C(=O)NCC(=O)N[C@@H](CCCCN)C(=O)N[C@@H](C)C(=O)N[C@@H](CCCCN)C(=O)N[C@@H](CSSC[C@H](NC(=O)[C@@H](NC(=O)[C@H](Cc2ccc(O)cc2)NC(=O)[C@H](Cc2c[nH]cn2)NC(=O)[C@@H](N)CC(=O)O)[C@@H](C)CC)C(=O)N[C@@H](C)C(=O)N[C@@H](CCCCN)C(=O)N[C@@H](CCCCN)C(=O)NCC(=O)NCC(=O)N[C@@H]([C@@H](C)O)C(=O)N3)C(=O)N1)C(=O)N[C@@H](CCCNC(=N)N)C(=O)O [PBD-2, Porcine beta-defensin 2] (HELM PEPTIDE1{D.H.Y.I.C.A.K.K.G.G.T.C.N.F.S.P.C.P.L.F.N.R.I.E.G.T.C.Y.S.G.K.A.K.C.C.I.R}$PEPTIDE1,PEPTIDE1,5:R3-34:R3|PEPTIDE1,PEPTIDE1,12:R3-27:R3|PEPTIDE1,PEPTIDE1,17:R3-35:R3$$$V2.0; N-terminus and C-terminus assumed), the IL-1β level (RAW 264.7 cells; [3]) was “significantly reduced in RAW 264.7 cells supplemented with PBD-2 or in the RAW 264.7–PBD-2 cells (p < 0.05)”, the IL-6 level (RAW 264.7 cells; [3]) was “significantly reduced in RAW 264.7 cells supplemented with PBD-2 or in the RAW 264.7–PBD-2 cells (p < 0.05)” and the TNF-α level (RAW 264.7 cells; [3]) was “significantly reduced in RAW 264.7 cells supplemented with PBD-2 or in the RAW 264.7–PBD-2 cells (p < 0.05)”. The “cytokine secretion, PBD-2 itself” value (RAW 264.7 cells; PBD-2 without stimulus (Figures 5A–C)) was “did not affect cytokine secretion”, the “inflammatory responses of RAW 264.7 cells expressing PBD-2 versus supplemented with synthetic PBD-2” value (RAW 264.7 cells; S. Typhimurium or LPS (Figures 5A–C)) was “lower than those of the cells supplemented with synthetic PBD-2” and the “secretion of IL-1β in the presence of TLR4 inhibitor” value (RAW 264.7 cells; [4]) was “did not affect the secretion of these cytokines in the presence of TLR4 inhibitor (NS, p > 0.05)”. For the same compound, the “secretion of IL-6 in the presence of TLR4 inhibitor” value (RAW 264.7 cells; [4]) was “did not affect the secretion of these cytokines in the presence of TLR4 inhibitor (NS, p > 0.05)”, the “secretion of TNF-α in the presence of TLR4 inhibitor” value (RAW 264.7 cells; [4]) was “did not affect the secretion of these cytokines in the presence of TLR4 inhibitor (NS, p > 0.05)” and the “secretion of IL-1β in the presence of NF-κB inhibitor” value (RAW 264.7 cells; [5]) was “did not affect the secretion of these cytokines in the presence of NF-κB inhibitor (NS, p > 0.05)”. The “secretion of IL-6 in the presence of NF-κB inhibitor” value (RAW 264.7 cells; [5]) was “did not affect the secretion of these cytokines in the presence of NF-κB inhibitor (NS, p > 0.05)”, the “secretion of TNF-α in the presence of NF-κB inhibitor” value (RAW 264.7 cells; [5]) was “did not affect the secretion of these cytokines in the presence of NF-κB inhibitor (NS, p > 0.05)” and the IL-1β level (RAW 264.7 cells; [6]) was “significantly reduced in RAW 264.7 cells supplemented with PBD-2 or in the RAW 264.7–PBD-2 cells (p < 0.05)”. For the same compound, the IL-6 level (RAW 264.7 cells; [6]) was “significantly reduced in RAW 264.7 cells supplemented with PBD-2 or in the RAW 264.7–PBD-2 cells (p < 0.05)”, the TNF-α level (RAW 264.7 cells; [6]) was “significantly reduced in RAW 264.7 cells supplemented with PBD-2 or in the RAW 264.7–PBD-2 cells (p < 0.05)” and the “NF-κB promoter activity after LPS induction” value (NF-κB; LPS 1 μg/ml with PBD-2 10 μg/mL, 24 h) was “inhibited the promoter activities of NF-κB after LPS induction (p < 0.01)”. For the same compound, the “NF-κB promoter activity in the presence of TLR4 inhibitor” value (NF-κB; PBD-2 10 μg/mL with LPS 1 μg/ml, 24 h, after CLI-095 1 μg/ml) was “did not influence the NF-κB promoter activity in the presence of TLR4 inhibitor (NS, p > 0.05)”, the “inhibitory effect on NF-κB promoter activity after pre-incubation with PBD-2” value (NF-κB; PBD-2 10, 30, and 60 μg/ml for 30, 60, 120, or 240 min, then LPS) was “positively correlated with dose and incubation time with PBD-2 (p < 0.05)” and the “binding to TLR4 on PVDF membrane” value (TLR4) was “could bind to TLR4”. The “survival at lower bacterial dose” value (S. Typhimurium) was “all the WT and TG mice survived until the end of the experiments”, the survival rate (S. Typhimurium) was 70% and the “bactericidal activity of the serum of TG pigs” value [1] was “higher than that of WT pigs”. For the same compound, the “expression level of PBD-2 in the TG mice” value [2] was ≤ 10^4 ng/g tissue, the “antibacterial activity, concentration dependence” value (bacteria; in vitro) was “positively related to its concentration” and the “bactericidal activity in vitro” value (bacteria) was “high and broad spectrum of bactericidal activity in vitro”. The “LPS-induced phosphorylation of p38” value (p38) was “did not affect the LPS-induced phosphorylation of ERK, p38, and JNK”.
